{"source": "patent US12370235B2", "about": "“Synthetic, non-natural antimicrobial peptides inspired by Staphylococcus auricularis delta toxin” (University of Saskatchewan, priority 2021, dated 2025)", "key": {"[1]": {"assay": "Circular dichroism spectroscopy", "assay_type": "physicochemical", "details": "CD, 50% (v/v) TFE", "how_it_was_run": "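Secondary structure of peptides dissolved in water at 0.3–0.5 mg/mL was assessed by CD. Spectra were recorded from 180 to 260 nm at room temperature in a 0.1 cm quartz cuvette; water and 50% (v/v) TFE conditions were compared.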"}, "C. albicans Y537": {"tested_on": "C. albicans Y537", "assay": "MIC, YPD broth", "assay_type": "cell-based, Candida albicans", "details": "Table 8"}, "C. albicans MYA-2876": {"tested_on": "C. albicans MYA-2876", "assay": "MIC, YPD broth", "assay_type": "cell-based, Candida albicans", "details": "Table 8", "how_it_was_run": "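Yeast cells were diluted in YPD broth, and 180 μl aliquots were mixed with 20 μl of peptide from 2-fold serial dilutions in flat-bottom 96-well microtitre plates. Wells receiving 20 μl sterile water served as controls. After standing incubation overnight at 37° C, the MIC was taken as the lowest peptide concentration with no visible microbial growth.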"}, "[2]": {"tested_on": "S. aureus / MRSA (ATCC MP-2 panel)", "assay_type": "cell-based, Staphylococcus aureus", "details": "in words", "how_it_was_run": "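MIC by broth microdilution in cation-adjusted Mueller Hinton broth: cultures diluted to OD 6×10^−4 and exposed to 2-fold peptide dilution series, standing overnight at 37° C. MIC = lowest peptide concentration with no visible growth. Panel: one methicillin-sensitive S. aureus plus 7 MRSA strains of distinct SCCmec genotypes.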"}, "HeLa cells": {"tested_on": "HeLa cells", "assay_type": "cell-based", "details": "24 h, alamarBlue", "procedure": "Peptide cytotoxicity. In vitro cytotoxicity was measured using the 3D EpiDerm skin tissues and HeLa Cells using a fluorescent reporter of cell viability, alamarBlue (ThermoFisher Scientific). 3D EpiDerm skin tissues (MatTek EPI-200-AFAB) were transferred to a 12 well plate containing 600 μL of AFAB-assay medium supplemented with 10% v/v alamarBlue. […] HeLa cells were seeded in a 96-well plate (2×10^4 cells/per well) and incubated overnight at 37° C. and 5% CO2 in a humidified incubator to prepare wells at ˜50% confluency of adherent cells. After the incubation, spent DMEM was removed and cells were washed with PBS. alamarBlue-containing medium was prepared by mixing Phenol Red-free DMEM with alamarBlue solution at a 9:1 ratio and a 180 μl volume was added to each well. Cells were treated with peptides varying from 3.25 to 200 μg/mL and then incubated for 24 h. The fluorescence intensities of treated cultures were normalized to values measured for an untreated control group. After the 24 h incubation period, alamarBlue fluorescence was measured at 590 nm upon excitation at 560 nm using Varioskan Lux plate reader (Thermo Scientific) plate reader."}, "MRSA ATCC 33592 [3]": {"tested_on": "MRSA ATCC 33592", "assay": "DiSC3(5) membrane polarization assay", "assay_type": "cell-based, Staphylococcus aureus", "details": "1.56 to 25 μg/mL", "procedure": "(§1) Membrane disruption and depolarization are commonly reported mechanisms of AMP action. Two indirect assays that rely on fluorescent dyes were employed to assess the interaction of STIP3-29 and D-STIP3-29 with bacterial membranes. First, changes to SYTOX fluorescence was measured when MRSA ATCC 33592 was treated with increasing peptide concentrations ranging from one fourth to four-fold the MIC. […] Next, DiSC3(5), a cationic dye that binds to polarized membranes was used to report on possible depolarization related to AMP treatment. […] Thus, without wishing to be bound by theory, a more conservative explanation of the results is that the cationic peptides increase membrane permeability to SYTOX and that the like-charge of the AMPs to the reporter of polarization may confound the interpretation of the indirect assay. For example, the AMPs may simply displace the self-quenching DiSC3(5) molecules from the membrane surface without causing depolarization."}, "MRSA ATCC 33592 [4]": {"tested_on": "MRSA ATCC 33592", "assay": "SYTOX Green membrane integrity assay", "assay_type": "cell-based, Staphylococcus aureus", "details": "one fourth to four-fold the MIC", "procedure": "as §1"}, "[5]": {"tested_on": "S. aureus ATCC 33592 (MRSA SCCmec type III)", "assay": "MIC, broth dilution", "assay_type": "cell-based, Staphylococcus aureus", "details": "Table 5; STIP3 variants, highest concentration 100 μg/mL", "how_it_was_run": "(§2)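 Peptides of 95% purity tested as 2-fold dilution series against bacteria diluted to OD 6×10^−4 in cation-adjusted Mueller Hinton broth. Standing cultures incubated overnight at 37° C; MIC is the lowest concentration with no visible growth.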"}, "[6]": {"tested_on": "S. aureus ATCC BAA-42 (MRSA SCCmec type VI)", "assay": "MIC, broth dilution", "assay_type": "cell-based, Staphylococcus aureus", "details": "Table 5; STIP3 variants, highest concentration 100 μg/mL", "how_it_was_run": "as §2"}, "S. aureus ATCC 29213": {"tested_on": "S. aureus ATCC 29213", "assay": "MIC, broth dilution", "assay_type": "cell-based, Staphylococcus aureus", "details": "Table 5; STIP3 variants, highest concentration 100 μg/mL", "how_it_was_run": "as §2"}, "[7]": {"tested_on": "S. aureus ATCC BAA-44 (MRSA SCCmec type I)", "assay": "MIC, broth dilution", "assay_type": "cell-based, Staphylococcus aureus", "details": "Table 5; STIP3 variants, highest concentration 100 μg/mL", "how_it_was_run": "as §2"}, "[8]": {"tested_on": "S. aureus ATCC BAA-2313 (MRSA SCCmec type XI)", "assay": "MIC, broth dilution", "assay_type": "cell-based, Staphylococcus aureus", "details": "Table 5; STIP3 variants, highest concentration 100 μg/mL", "how_it_was_run": "as §2"}, "[9]": {"tested_on": "S. aureus ATCC BAA-2094 (MRSA SCCmec type V)", "assay": "MIC, broth dilution", "assay_type": "cell-based, Staphylococcus aureus", "details": "Table 5; STIP3 variants, highest concentration 100 μg/mL", "how_it_was_run": "as §2"}, "[10]": {"tested_on": "S. aureus ATCC BAA-1683 (MRSA SCCmec type IV)", "assay": "MIC, broth dilution", "assay_type": "cell-based, Staphylococcus aureus", "details": "Table 5; STIP3 variants, highest concentration 100 μg/mL", "how_it_was_run": "as §2"}, "[11]": {"tested_on": "S. aureus ATCC BAA-41 (MRSA SCCmec type II)", "assay": "MIC, broth dilution", "assay_type": "cell-based, Staphylococcus aureus", "details": "Table 5; STIP3 variants, highest concentration 100 μg/mL", "how_it_was_run": "as §2"}}, "note": "Square brackets hold non-standard residues; d marks the D form. Peptide text beside a SMILES is read from it.", "data": [{"smiles": "CC[C@@H](C)[C@@H](NC(=O)[C@@H](Cc1c[nH]c2ccccc12)NC(=O)[C@@H](CCCCN)NC(=O)[C@H](NC(=O)[C@@H](CC(C)C)NC(=O)CNC(=O)CNC(=O)[C@H](NC(=O)[C@H](N)[C@H](C)O)C(C)C)C(C)C)C(=O)N[C@H](CC(C)C)C(=O)N[C@H](CCCCN)C(=O)N[C@@H](C(=O)N[C@@H](C(=O)N[C@H](CCCCN)C(=O)N[C@H](CCCCN)C(=O)N[C@H](Cc1ccccc1)C(=O)N[C@H](C)C(N)=O)C(C)C)[C@H](C)O", "note": "[D-STIP3-29, TVGGLVKWILKTVKKFA-NH2] (H-[dT][dV]GG[dL][dV][dK][dW][dI][dL][dK][dT][dV][dK][dK][dF][dA]-NH2; N-terminus assumed)", "values": [{"measurement": "α helicity (%)", "setting": "[1]", "value": 47, "unit": "%"}, {"measurement": "MIC C. albicans Y537", "setting": "C. albicans Y537", "value": 50, "unit": "µg/mL"}, {"measurement": "MIC C. albicans MYA-2876", "setting": "C. albicans MYA-2876", "value": 50, "unit": "µg/mL"}, {"measurement": "activity relative to the L-enantiomer", "setting": "[2]", "value": "just as active as the L-enantiomer"}, {"measurement": "IC50, HeLa cell survival", "setting": "HeLa cells", "value": "39 ± 3", "unit": "µg/mL"}, {"measurement": "DiSC3(5) fluorescence change", "setting": "MRSA ATCC 33592 [3]", "value": "dose-dependent increase in fluorescence"}, {"measurement": "SYTOX fluorescence change", "setting": "MRSA ATCC 33592 [4]", "value": "rapid and concentration dependent increase in SYTOX fluorescence"}, {"measurement": "MIC S. aureus ATCC 33592 (III)", "setting": "[5]", "value": 6.25, "unit": "µg/mL"}, {"measurement": "MIC S. aureus ATCC BAA 42 (VI)", "setting": "[6]", "value": 6.25, "unit": "µg/mL"}, {"measurement": "MIC S. aureus ATCC 29213", "setting": "S. aureus ATCC 29213", "value": 6.25, "unit": "µg/mL"}, {"measurement": "MIC S. aureus ATCC BAA 44 (I)", "setting": "[7]", "value": 12.5, "unit": "µg/mL"}, {"measurement": "MIC S. aureus ATCC BAA 2313 (XI)", "setting": "[8]", "value": 6.25, "unit": "µg/mL"}, {"measurement": "MIC S. aureus ATCC BAA 2094 (V)", "setting": "[9]", "value": 6.25, "unit": "µg/mL"}, {"measurement": "MIC S. aureus ATCC BAA 1683 (IV)", "setting": "[10]", "value": 6.25, "unit": "µg/mL"}, {"measurement": "MIC S. aureus ATCC BAA 41 (II)", "setting": "[11]", "value": 6.25, "unit": "µg/mL"}]}]}
